One assay deals with MCF-7 cells. As to the kind of experiment: Breast cancer cell line proliferation inhibitory activity (CellTiter-Glo 2.0). In kind it is cell-based. The conditions noted are these: Homo sapiens, MCF7, 120 hours. The protocol:
In order to evaluate the breast cancer cell line cell proliferation inhibitory activities of Examples according to the present invention, the following experiment was performed. Breast cancer cells of MCF-7 (Korean Cell Line Bank) were planted in a clear bottom white 96-well plate (Corning) so as to be 3×10^3/150 μl/well, and a culture solution comprising the compound continuously diluted in multiples of 3 at 12 concentrations (0.00001-2 mM) and a DMSO control group was added by 0.5 μl/well and treated so that the final concentration was 0.00005-10 μM, and then cultured in a 37° C. CO2 incubator for 120 hours. After 120 hours, the plate treated with the compound is taken out, and CellTiter-Glo® 2.0 Assay (Promega) solution is treated at 150 μl/well and then they mix well. They mix well at room temperature for 10 minutes or so, and the fluorescence is measured with a microplate reader. The data were expressed as a percentage in proportion to the vehicle standard treated cells, the GI50 (nM) values were calculated using GraphPad Prism 8.3.0 (GraphPad software Inc., San Diego), and the results were shown in Table 3 below.

A further assay deals with T1, human GST-HPK1 (1-346) (Homo sapiens, UniProt Q92918).
T1 construct: purified human GST-HPK1 (1-346, Signalchem) enzyme; purchased Signalchem
T1 sequence (Q92918 1-346): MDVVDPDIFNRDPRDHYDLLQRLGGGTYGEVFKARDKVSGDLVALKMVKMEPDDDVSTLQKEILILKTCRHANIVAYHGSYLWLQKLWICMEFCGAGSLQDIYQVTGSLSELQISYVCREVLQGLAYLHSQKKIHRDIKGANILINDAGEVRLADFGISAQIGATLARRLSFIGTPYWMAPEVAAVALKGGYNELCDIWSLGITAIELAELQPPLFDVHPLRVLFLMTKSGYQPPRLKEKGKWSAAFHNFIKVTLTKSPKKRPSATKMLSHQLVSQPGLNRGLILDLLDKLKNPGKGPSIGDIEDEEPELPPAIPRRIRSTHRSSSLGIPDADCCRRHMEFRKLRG
As to the kind of experiment: HPK1 enzyme inhibitory ability (ADP-Glo kinase assay). The conditions noted are these: human GST-HPK1 3 ng, ATP 3 uM, 25° C. 2 hours. In kind it is biochemical. Put shortly: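 Human GST-HPK1(1-346), 3 ng, reacted with 3 uM ATP and specific substrate in 40 mM Tris-HCl pH 7.4, 20 mM MgCl2, 0.5 mg/mL BSA, 50 uM DTT for 2 h at 25° C. ADP-Glo luminescence read; IC50 (nM) relative to untreated solvent control.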

The target in a further assay is T2, human FLT3-ITD enzyme (Homo sapiens, UniProt P36888).
T2 sequence (P36888 1-993): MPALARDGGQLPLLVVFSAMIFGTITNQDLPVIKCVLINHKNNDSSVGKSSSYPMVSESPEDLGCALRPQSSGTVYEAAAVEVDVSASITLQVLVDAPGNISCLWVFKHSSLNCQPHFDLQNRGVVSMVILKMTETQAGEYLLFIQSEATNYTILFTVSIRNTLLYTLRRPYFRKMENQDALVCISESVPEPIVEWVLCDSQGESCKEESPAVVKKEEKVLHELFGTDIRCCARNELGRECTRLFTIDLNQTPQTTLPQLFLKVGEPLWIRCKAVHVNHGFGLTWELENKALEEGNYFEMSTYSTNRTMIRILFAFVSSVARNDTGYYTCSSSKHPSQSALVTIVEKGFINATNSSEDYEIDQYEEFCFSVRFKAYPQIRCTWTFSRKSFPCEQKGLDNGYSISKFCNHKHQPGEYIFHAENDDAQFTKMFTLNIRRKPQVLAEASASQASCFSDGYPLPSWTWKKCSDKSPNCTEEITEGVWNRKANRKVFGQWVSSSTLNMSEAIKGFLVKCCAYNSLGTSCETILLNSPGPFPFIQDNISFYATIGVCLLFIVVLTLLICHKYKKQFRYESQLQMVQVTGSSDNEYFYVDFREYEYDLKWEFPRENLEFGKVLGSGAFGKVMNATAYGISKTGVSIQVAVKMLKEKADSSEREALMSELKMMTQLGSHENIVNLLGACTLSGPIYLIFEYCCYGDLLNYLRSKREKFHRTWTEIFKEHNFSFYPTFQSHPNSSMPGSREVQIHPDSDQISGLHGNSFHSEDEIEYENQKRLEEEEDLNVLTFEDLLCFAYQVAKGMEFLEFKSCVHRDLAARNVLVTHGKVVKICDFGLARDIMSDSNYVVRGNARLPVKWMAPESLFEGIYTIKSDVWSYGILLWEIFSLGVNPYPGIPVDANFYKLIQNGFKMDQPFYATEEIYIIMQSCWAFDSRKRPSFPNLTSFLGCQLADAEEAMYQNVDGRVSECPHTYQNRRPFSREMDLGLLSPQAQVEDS
In words: FLT3 enzyme inhibitory ability (ADP-Glo kinase assay). In kind it is biochemical. The conditions noted are these: human FLT3-ITD enzyme 10 ng, ATP 10 μM, 25° C. 1 hour. The procedure, abridged:
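Purified human FLT3-ITD (10 ng) with 10 μM ATP and specific substrate in 40 mM Tris-HCl pH 7.4, 20 mM MgCl2, 0.5 mg/mL BSA, 50 μM DTT, 1 h at 25 °C. ADP formation read by ADP-Glo luminescence; IC50 (nM) versus solvent-treated control.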

The test system of a further assay is MV4-11 cells. In words: AML cell proliferation inhibitory activity (CellTiter-Glo). The conditions noted are these: Homo sapiens, 72 hours. In kind it is cell-based. As for the experimental part:
The inhibitory activities of the example compounds according to the present invention on the proliferation of acute myeloid leukemia (AML) cells expressing the FLT3 mutant gene were evaluated. Specifically, RS4;11 and MV4-11 cells as acute myeloid leukemia cells expressing the FLT3 mutant gene were cultured in RPMI-1640 (Invitrogen) adding 10% FBS. The cells were seeded into each well of a clear bottom white 96-well plate (Corning) at 3000 to 5000 cells 24 hours before compound treatment. The compound was diluted in DMSO (diluted each three-fold, to a total of 12 concentrations) and injected at 0.5 μL each so as to be a final concentration of 0.3 nM to 50 μM. After 72 hours of the compound treatment, they were treated with CellTiter-Glo Luminescent Cell Viability assay (Promega) and stored at room temperature for 10 minutes, and luminescence intensities were measured with a reader (SynergyNeo, Biotek) to count viable cells. Each experiment was performed three times repeatedly. The result values were calculated as the cell growth rate (%) compared to the control treated with the solvent. The graph was derived using the GraphPad Prism program (version 5.0), the GI50 (nM) values were calculated, and the results were shown in Table 3 below.

The structures appear in SMILES notation.

For `CN1CCN(c2ccc(Nc3nc(N4N=CCC4c4ccccc4)c4sccc4n3)cc2)CC1` (stereo not shown) [Example 1, N-(4-(4-methylpiperazin-1-yl)phenyl)-4-(5-phenyl-4,5-dihydro-1H-pyrazol-1-yl)thieno[3,2-d]pyrimidin-2-amine], the GI50 in the assay on MCF-7 cells and in the assay with MV4-11 cells was more than 500 nM in each case. Besides, the IC50 against human GST-HPK1 (1-346) is more than 500 nM; on human FLT3-ITD enzyme, 250 to 500 nM.
Take `C1=NN(c2nc(Nc3ccc(N4CCOCC4)cc3)nc3ccsc23)C(c2ccccc2)C1` (stereo not shown) [Example 3, N-(4-morpholinophenyl)-4-(5-phenyl-4,5-dihydro-1H-pyrazol-1-yl)thieno[3,2-d]pyrimidin-2-amine]: the GI50 with MV4-11 cells was more than 500 nM.
`CN1CCN(c2ccc(Nc3nc(N4N=CCC4c4ccccc4)c4sccc4n3)nc2)CC1` (stereo not shown) [Example 4, N-(5-(4-methylpiperazin-1-yl)pyridin-2-yl)-4-(5-phenyl-4,5-dihydro-1H-pyrazol-1-yl)thieno[3,2-d]pyrimidin-2-amine]: the IC50 on human FLT3-ITD enzyme was more than 500 nM. The GI50 in the assay with MV4-11 cells is more than 500 nM.
As for `COc1cc(N2CCN(C)CC2)ccc1Nc1nc(N2N=CCC2c2ccccc2)c2sccc2n1` (stereo not shown) [Example 6, N-(2-methoxy-4-(4-methylpiperazin-1-yl)phenyl)-4-(5-phenyl-4,5-dihydro-1H-pyrazol-1-yl)thieno[3,2-d]pyrimidin-2-amine], the GI50 in the assay on MCF-7 cells and with MV4-11 cells was more than 500 nM throughout. The IC50 at human GST-HPK1 (1-346) and on human FLT3-ITD enzyme was more than 500 nM in each case.
Take `COc1cc(Nc2nc(N3N=CCC3c3ccccc3)c3sccc3n2)ccc1N1CCC(N2CCN(C)CC2)CC1` (stereo not shown) [Example 8, N-(3-methoxy-4-(4-(4-methylpiperazin-1-yl)piperidin-1-yl)phenyl)-4-(5-phenyl-4,5-dihydro-1H-pyrazol-1-yl)thieno[3,2-d]pyrimidin-2-amine]: the concentration for 50% growth inhibition (GI50) in the assay on MCF-7 cells is more than 500 nM; in the assay on MV4-11 cells it was not below 250 nM. For the same compound, the IC50 at human GST-HPK1 (1-346) and against human FLT3-ITD enzyme was more than 500 nM each time.
`COc1cc(N2CCC(N3CCN(C)CC3)CC2)ccc1Nc1nc(N2N=CCC2c2ccccc2)c2sccc2n1` (stereo not shown) [Example 10, N-(2-methoxy-4-(4-(4-methylpiperazin-1-yl)piperidin-1-yl)phenyl)-4-(5-phenyl-4,5-dihydro-1H-pyrazol-1-yl)thieno[3,2-d]pyrimidin-2-amine]: the IC50 against human FLT3-ITD enzyme was not below 250 nM. Besides, the GI50 in the assay with MV4-11 cells was more than 500 nM.
For `CCc1cc(Nc2nc(N3N=CCC3c3ccccc3)c3sccc3n2)cc(OCCN2CCC(O)CC2)c1` (stereo not shown) [Example 16, 1-(2-(3-ethyl-5-((4-(5-phenyl-4,5-dihydro-1H-pyrazol-1-yl)thieno[3,2-d]pyrimidin-2-yl)amino)phenoxy)ethyl)piperidin-4-ol], the GI50 with MCF-7 cells and in the assay with MV4-11 cells was more than 500 nM each time. Moreover, the IC50 against human GST-HPK1 (1-346) and against human FLT3-ITD enzyme was more than 500 nM each time.
Consider `Cc1cc(N2CCOCC2)ccc1Nc1nc(N2N=CCC2c2ccccc2)c2sccc2n1` (stereo not shown) [Example 21, N-(2-methyl-4-morpholinophenyl)-4-(5-phenyl-4,5-dihydro-1H-pyrazol-1-yl)thieno[3,2-d]pyrimidin-2-amine], for which, in the assay on MV4-11 cells, the GI50 was more than 500 nM.
For `O=C(c1ccc(Nc2nc(N3N=CCC3c3ccccc3)c3sccc3n2)cc1)N1CCOCC1` (stereo not shown) [Example 22, morpholino(4-((4-(5-phenyl-4,5-dihydro-1H-pyrazol-1-yl)thieno[3,2-d]pyrimidin-2-yl)amino)phenyl)methanone], in the assay with MV4-11 cells, the GI50 is more than 500 nM.
Same read-out and setting: as for `Cc1cn(Cc2ccc(Nc3nc(N4N=CCC4c4ccccc4)c4sccc4n3)cc2)cn1` (stereo not shown) [Example 23, N-(4-((4-methyl-1H-imidazol-1-yl)methyl)phenyl)-4-(5-phenyl-4,5-dihydro-1H-pyrazol-1-yl)thieno[3,2-d]pyrimidin-2-amine], the figure is more than 500 nM; as for `Cc1cn(Cc2cccc(Nc3nc(N4N=CCC4c4ccccc4)c4sccc4n3)c2)cn1` (stereo not shown) [Example 24, N-(3-((4-methyl-1H-imidazol-1-yl)methyl)phenyl)-4-(5-phenyl-4,5-dihydro-1H-pyrazol-1-yl)thieno[3,2-d]pyrimidin-2-amine], more than 500 nM; as for `CN(C)CCn1cc(Nc2nc(N3N=CCC3c3ccccc3)c3sccc3n2)cn1` (stereo not shown) [Example 27, N-(1-(2-(dimethylamino)ethyl)-1H-pyrazol-4-yl)-4-(5-phenyl-4,5-dihydro-1H-pyrazol-1-yl)thieno[3,2-d]pyrimidin-2-amine], more than 500 nM.
As for `COc1cc(Nc2nc(N3N=CCC3c3ccccc3)c3sccc3n2)ccc1C(=O)NC1CCN(C)CC1` (stereo not shown) [Example 52, 2-methoxy-N-(1-methylpiperidin-4-yl)-4-((4-(5-phenyl-4,5-dihydro-1H-pyrazol-1-yl)thieno[3,2-d]pyrimidin-2-yl)amino)benzamide], on human FLT3-ITD enzyme, the IC50 is more than 500 nM. Moreover, the GI50 in the assay on MV4-11 cells was not below 250 nM.
In the assay with MCF-7 cells, `CN(C)[C@H]1CCN(c2cccc(Nc3nc(N4OCC[C@@H]4c4ccccc4)c4cc[nH]c4n3)c2)C1` [Example 126, N-(3-((S)-3-(dimethylamino)pyrrolidin-1-yl)phenyl)-4-((R)-3-phenylisoxazolidin-2-yl)-7H-pyrrolo[2,3-d]pyrimidin-2-amine] displayed a GI50 of more than 500 nM. The IC50 on human GST-HPK1 (1-346) and on human FLT3-ITD enzyme was more than 500 nM each time.
With `CN1CCN(c2ccc(Nc3nc(N4OCC[C@@H]4c4ccccc4)c4cc[nH]c4n3)cc2)CC1` [Example 128, (R)-N-(4-(4-methylpiperazin-1-yl)phenyl)-4-(3-phenylisoxazolidin-2-yl)-7H-pyrrolo[2,3-d]pyrimidin-2-amine], the GI50 in the assay on MV4-11 cells fell in the range of 250 to 500 nM.
As to `COc1cc(Nc2nc(N3OCC[C@@H]3c3ccccc3)c3cc[nH]c3n2)ccc1N1CCC(N2CCN(C)CC2)CC1` [Example 129, (R)-N-(3-methoxy-4-(4-(4-methylpiperazin-1-yl)piperidin-1-yl)phenyl)-4-(3-phenylisoxazolidin-2-yl)-7H-pyrrolo[2,3-d]pyrimidin-2-amine], the concentration for half-maximal inhibition (IC50) at human FLT3-ITD enzyme was more than 500 nM. In the assay on MV4-11 cells, the concentration for 50% growth inhibition (GI50) was 250 to 500 nM.

(Values after US20220242870A1, “HETEROCYCLE-FUSED PYRIMIDINE DERIVATIVE AND USE THEREOF” (VORONOI Inc., priority 2019, published 2022).)
